ChEMBL document CHEMBL1201861, “Genomics of Drug Sensitity in Cancer screening data, Wellcome Trust Sanger Institute”

Experiments:
DG-75 = assay: cells; assay type: functional, cell-based, Homo sapiens; details: Homo sapiens, DG-75;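 also: growth inhibition of DG-75 cells, read out with a cell viability assay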
Description: SANGER: Inhibition of human DG-75 cell growth in a cell viability assay.

CWR22R = assay: cells; assay type: functional, cell-based; details: Homo sapiens, 22Rv1;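 also: growth inhibition of 22Rv1 cells, read out with a cell viability assay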
Description: SANGER: Inhibition of human 22RV1 cell growth in a cell viability assay.

SW1417 = assay: cells; assay type: functional, cell-based; details: Homo sapiens;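 also: growth inhibition of human SW1417 cells, read out with a cell viability assay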
Description: SANGER: Inhibition of human SW1417 cell growth in a cell viability assay.

LN-405 = assay: cells; assay type: functional, cell-based; details: Homo sapiens
Description: SANGER: Inhibition of human LN-405 cell growth in a cell viability assay.

MIA PaCa-2 = assay: cells; assay type: functional, cell-based; details: Homo sapiens;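 also: growth inhibition of MIA PaCa-2 cells, read out with a cell viability assay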
Description: SANGER: Inhibition of human MIA-PaCa-2 cell growth in a cell viability assay.

CAKI-1 = assay: cells; assay type: functional, cell-based; details: Homo sapiens;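 also: growth inhibition of CAKI-1 cells, measured by a cell viability assay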
Description: SANGER: Inhibition of human CAKI-1 cell growth in a cell viability assay.

MeWo = assay: cells; assay type: functional, cell-based; details: Homo sapiens;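 also: growth inhibition of MeWo cells, determined by a cell viability readout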
Description: SANGER: Inhibition of human Mewo cell growth in a cell viability assay.

A2058 = assay: cells; assay type: functional, cell-based; details: Homo sapiens;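 also: reduction of A2058 cell growth, read out with a viability assay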
Description: SANGER: Inhibition of human A2058 cell growth in a cell viability assay.

NCI-H1882 = assay: cells; assay type: functional, cell-based, Homo sapiens; details: Homo sapiens, NCI-H1882;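 also: growth inhibition of the cell line, determined with a viability assay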
Description: SANGER: Inhibition of human NCI-H1882 cell growth in a cell viability assay.

TYK-nu = assay: cells; assay type: functional, cell-based; details: Homo sapiens;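 also: growth inhibition of human TYK-nu cells, read out by a cell viability assay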
Description: SANGER: Inhibition of human TYK-nu cell growth in a cell viability assay.

CAL-72 = assay: cells; assay type: functional, cell-based; details: Homo sapiens;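 also: cell viability assay measuring inhibition of proliferation in the CAL-72 cell line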
Description: SANGER: Inhibition of human CAL-72 cell growth in a cell viability assay.

HT1197 = assay: cells; assay type: functional, cell-based, HT-1197; details: Homo sapiens
Description: SANGER: Inhibition of human HT-1197 cell growth in a cell viability assay.

HSC-3 = assay: cells; assay type: functional, cell-based; details: Homo sapiens
Description: SANGER: Inhibition of human HSC-3 cell growth in a cell viability assay.

A204 = assay: cells; assay type: functional, cell-based; details: Homo sapiens;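 also: growth inhibition of human A204 cells, read out with a cell viability assay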
Description: SANGER: Inhibition of human A204 cell growth in a cell viability assay.

CPC-N = assay: cells; assay type: functional, cell-based, Homo sapiens; details: Homo sapiens, CPC-N;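 also: growth inhibition of CPC-N cells, with a cell viability assay as the readout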
Description: SANGER: Inhibition of human CPC-N cell growth in a cell viability assay.

GMS-10 = assay: cells; assay type: functional, cell-based; details: Homo sapiens;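 also: growth inhibition of GMS-10 cells, read out as cell viability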
Description: SANGER: Inhibition of human GMS-10 cell growth in a cell viability assay.

MFH-ino = assay: cells; assay type: functional, cell-based, Homo sapiens; details: Homo sapiens, MFH-ino;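 also: growth inhibition of human MFH-ino cells, read out by a cell viability assay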
Description: SANGER: Inhibition of human MFH-ino cell growth in a cell viability assay.

SW-620 = assay: cells; assay type: functional, cell-based; details: Homo sapiens;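 also: growth inhibition of human SW-620 cells, measured by a cell viability assay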
Description: SANGER: Inhibition of human SW620 cell growth in a cell viability assay.

OAW-28 = assay: cells; assay type: functional, cell-based; details: Homo sapiens;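 also: growth inhibition of OAW-28 cells, read out with a cell viability assay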
Description: SANGER: Inhibition of human OAW-28 cell growth in a cell viability assay.

MONO-MAC-6 = assay: cells; assay type: functional, cell-based, Homo sapiens; details: Homo sapiens, MONO-MAC-6;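 also: cell viability assay measuring growth inhibition of human MONO-MAC-6 cells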
Description: SANGER: Inhibition of human MONO-MAC-6 cell growth in a cell viability assay.

EB2 = assay: cells; assay type: functional, cell-based, Homo sapiens; details: Homo sapiens, EB2;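 also: growth inhibition of EB2 cells, read out with a cell viability assay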
Description: SANGER: Inhibition of human EB2 cell growth in a cell viability assay.

BT-20 = assay: cells; assay type: functional, cell-based; details: Homo sapiens;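 also: cell viability assay measuring suppression of growth in human BT-20 cells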
Description: SANGER: Inhibition of human BT-20 cell growth in a cell viability assay.

MEL-HO = assay: cells; assay type: functional, cell-based; details: Homo sapiens
Description: SANGER: Inhibition of human MEL-HO cell growth in a cell viability assay.

HEC-1 = assay: cells; assay type: functional, cell-based; details: Homo sapiens;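 also: growth inhibition of the cell line, read out with a cell viability assay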
Description: SANGER: Inhibition of human HEC-1 cell growth in a cell viability assay.

KYSE-410 = assay: cells; assay type: functional, cell-based; details: Homo sapiens;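 also: growth inhibition of KYSE-410 cells, measured through a cell viability readout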
Description: SANGER: Inhibition of human KYSE-410 cell growth in a cell viability assay.

IST-SL2 = assay: cells; assay type: functional, cell-based, Homo sapiens; details: Homo sapiens, IST-SL2;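 also: growth inhibition of human IST-SL2 cells, read out by a cell viability assay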
Description: SANGER: Inhibition of human IST-SL2 cell growth in a cell viability assay.

SK-MM-2 = assay: cells; assay type: functional, cell-based, Homo sapiens; details: Homo sapiens, SK-MM-2;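 also: growth inhibition of human SK-MM-2 cells, read out with a cell viability assay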
Description: SANGER: Inhibition of human SK-MM-2 cell growth in a cell viability assay.

NCI-H1993 = assay: cells; assay type: functional, cell-based; details: Homo sapiens;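 also: growth inhibition of the cancer cell line, assessed with a cell viability assay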
Description: SANGER: Inhibition of human NCI-H1993 cell growth in a cell viability assay.

NCI-H2196 = assay: cells; assay type: functional, cell-based, Homo sapiens; details: Homo sapiens, NCI-H2196; read-out: IC50;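 also: cell viability assay used as the readout of growth inhibition in NCI-H2196 cells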
Description: SANGER: Inhibition of human NCI-H2196 cell growth in a cell viability assay.

SNU-423 = assay: cells; assay type: functional, cell-based; details: Homo sapiens
Description: SANGER: Inhibition of human SNU-423 cell growth in a cell viability assay.

WSU-NHL = assay: cells; assay type: functional, cell-based, Homo sapiens; details: Homo sapiens, WSU-NHL;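 also: growth inhibition of human WSU-NHL cells, read out with a cell viability assay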
Description: SANGER: Inhibition of human WSU-NHL cell growth in a cell viability assay.

LC-1F = assay: cells; assay type: functional, cell-based, Homo sapiens; details: Homo sapiens, LC-1F;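 also: growth inhibition of human LC-1F cells, read out with a cell viability assay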
Description: SANGER: Inhibition of human LC-1F cell growth in a cell viability assay.

M059J = assay: cells; assay type: functional, cell-based; details: Homo sapiens;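 also: growth inhibition of M059J cells, read out with a cell viability assay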
Description: SANGER: Inhibition of human M059J cell growth in a cell viability assay.

Capan-2 = assay: cells; assay type: functional, cell-based; details: Homo sapiens;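 also: Capan-2 cell growth inhibition, read out with a viability assay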
Description: SANGER: Inhibition of human Capan-2 cell growth in a cell viability assay.

YT = assay: cells; assay type: functional, cell-based, Homo sapiens; details: Homo sapiens, YT
Description: SANGER: Inhibition of human YT cell growth in a cell viability assay.

EFO-21 = assay: cells; assay type: functional, cell-based; details: Homo sapiens;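 also: growth inhibition of EFO-21 cells measured with a viability assay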
Description: SANGER: Inhibition of human EFO-21 cell growth in a cell viability assay.

HSC-4 = assay: cells; assay type: functional, cell-based; details: Homo sapiens;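 also: growth inhibition of human HSC-4 cells, read out with a cell viability assay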
Description: SANGER: Inhibition of human HSC-4 cell growth in a cell viability assay.

DMS-79 = assay: cells; assay type: functional, cell-based, Homo sapiens; details: Homo sapiens, DMS-79
Description: SANGER: Inhibition of human DMS-79 cell growth in a cell viability assay.

SJRH30 = assay: cells; assay type: functional, cell-based; details: Homo sapiens;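 also: growth inhibition of human SJRH30 cells, read out with a cell viability assay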
Description: SANGER: Inhibition of human SJRH30 cell growth in a cell viability assay.

SN12C = assay: cells; assay type: functional, cell-based; details: Homo sapiens;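 also: growth inhibition of human SN12C cells, measured by a cell viability assay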
Description: SANGER: Inhibition of human SN12C cell growth in a cell viability assay.

UACC-62 = assay: cells; assay type: functional, cell-based; details: Homo sapiens;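 also: growth inhibition of human UACC-62 cells, read out by a cell viability assay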
Description: SANGER: Inhibition of human UACC-62 cell growth in a cell viability assay.

BHY = assay: cells; assay type: functional, cell-based; details: Homo sapiens;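 also: cell growth inhibition read out by a viability assay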
Description: SANGER: Inhibition of human BHY cell growth in a cell viability assay.

MDA-MB-361 = assay: cells; assay type: functional, cell-based; details: Homo sapiens
T-24 = assay: cells; assay type: functional, cell-based; details: Homo sapiens;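 also: growth inhibition of T-24 cells, read out with a cell viability assay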
Description: SANGER: Inhibition of human T-24 cell growth in a cell viability assay.

Calu-3 = assay: cells; assay type: functional, cell-based; details: Homo sapiens;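 also: growth inhibition of human Calu-3 cells, determined with a cell viability assay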
Description: SANGER: Inhibition of human Calu-3 cell growth in a cell viability assay.

G-401 = assay: cells; assay type: functional, cell-based; details: Homo sapiens
Description: SANGER: Inhibition of human G-401 cell growth in a cell viability assay.

COR-L279 = assay: SANGER: Inhibition of human COR-L279 cell growth in a cell viability assay.; assay type: functional, cell-based; details: Homo sapiens, COR-L279
AGS = assay: cells; assay type: functional, cell-based; details: Homo sapiens;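 also: growth inhibition of AGS cells, determined with a cell viability assay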
Description: SANGER: Inhibition of human AGS cell growth in a cell viability assay.

P12-Ichikawa = assay: cells; assay type: functional, cell-based; details: Homo sapiens
SW780 = assay: cells; assay type: functional, cell-based; details: Homo sapiens;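 also: growth inhibition of the cells, read out with a cell viability assay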
Description: SANGER: Inhibition of human SW780 cell growth in a cell viability assay.

SCC-3 = assay: cells; assay type: functional, cell-based, Homo sapiens; details: Homo sapiens, SCC-3;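 also: cell viability assay measuring inhibition of SCC-3 cell growth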
Description: SANGER: Inhibition of human SCC-3 cell growth in a cell viability assay.

SK-OV-3 = assay: cells; assay type: functional, cell-based; details: Homo sapiens;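 also: growth inhibition of SK-OV-3 human cells, read out with a cell viability assay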
Description: SANGER: Inhibition of human SK-OV-3 cell growth in a cell viability assay.

RO82-W-1 = assay: cells; assay type: functional, cell-based; details: Homo sapiens;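 also: growth inhibition of human RO82-W-1 cells, measured with a cell viability assay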
Description: SANGER: Inhibition of human RO82-W-1 cell growth in a cell viability assay.

Hs-578T = assay: cells; assay type: functional, cell-based; details: Homo sapiens
Description: SANGER: Inhibition of human Hs-578-T cell growth in a cell viability assay.

NCI-H1693 = assay: cells; assay type: functional, cell-based; details: Homo sapiens;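 also: growth inhibition of the human cell line, read out with a cell viability assay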
Description: SANGER: Inhibition of human NCI-H1693 cell growth in a cell viability assay.

MDA-MB-175-VII = assay: cells; assay type: functional, cell-based; details: Homo sapiens
NCI-H1417 = assay: cells; assay type: functional, cell-based, Homo sapiens; details: Homo sapiens, NCI-H1417;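 also: human NCI-H1417 cells, growth inhibition determined with a cell viability readout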
Description: SANGER: Inhibition of human NCI-H1417 cell growth in a cell viability assay.

RT-112 = assay: cells; assay type: functional, cell-based; details: Homo sapiens
Description: SANGER: Inhibition of human RT-112 cell growth in a cell viability assay.

HT-3 = assay: cells; assay type: functional, cell-based; details: Homo sapiens;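 also: growth inhibition measured with a cell viability readout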
Description: SANGER: Inhibition of human HT-3 cell growth in a cell viability assay.

C/C(=C\c1csc(C)n1)[C@@H]1C[C@@H]2O[C@]2(C)CCC[C@H](C)[C@H](O)[C@@H](C)C(=O)C(C)(C)[C@@H](O)CC(=O)O1 [PATUPILONE]
IC50 (DG-75): > 32 nM
IC50 (CWR22R): 8.41 nM
IC50 (SW1417): > 32 nM
IC50 (LN-405): > 32 nM
IC50 (MIA PaCa-2): 1.31 nM
IC50 (CAKI-1): 17.3 nM
IC50 (MeWo): > 32 nM
IC50 (A2058): 0.601 nM
IC50 (NCI-H1882): > 32 nM
IC50 (TYK-nu): > 32 nM
IC50 (CAL-72): > 32 nM
IC50 (HT1197): > 32 nM
IC50 (HSC-3): 0.786 nM
IC50 (A204): 3.12 nM
IC50 (CPC-N): 10.7 nM
IC50 (GMS-10): > 32 nM
IC50 (MFH-ino): 0.885 nM
IC50 (SW-620): 0.648 nM
IC50 (OAW-28): 7.95 nM
IC50 (MONO-MAC-6): 17.4 nM
IC50 (EB2): 3.69 nM
IC50 (BT-20): 5.1 nM
IC50 (MEL-HO): 1.69 nM
IC50 (HEC-1): 9.09 nM
IC50 (KYSE-410): 1.02 nM
IC50 (IST-SL2): 7.03 nM
IC50 (SK-MM-2): 17.3 nM
IC50 (NCI-H1993): > 32 nM
IC50 (NCI-H2196): > 32 nM
IC50 (SNU-423): 1.67 nM
IC50 (WSU-NHL): 4.15 nM
IC50 (LC-1F): > 32 nM
IC50 (M059J): 1.34 nM
IC50 (Capan-2): 30 nM
IC50 (YT): 18.7 nM
IC50 (EFO-21): 9.82 nM
IC50 (HSC-4): 29.9 nM
IC50 (DMS-79): > 32 nM
IC50 (SJRH30): 12.9 nM
IC50 (SN12C): 9.39 nM
IC50 (UACC-62): > 32 nM
IC50 (BHY): 0.195 nM
IC50 (MDA-MB-361): 16.5 nM
IC50 (T-24): 20.6 nM
IC50 (Calu-3): 1.68 nM
IC50 (G-401): 1.51 nM
IC50 (COR-L279): 9.27 nM
IC50 (AGS): 2.58 nM
IC50 (P12-Ichikawa): 11 nM
IC50 (SW780): > 32 nM
IC50 (SCC-3): > 32 nM
IC50 (SK-OV-3): 1.5 nM
IC50 (RO82-W-1): > 32 nM
IC50 (Hs-578T): > 32 nM
IC50 (NCI-H1693): > 32 nM
IC50 (MDA-MB-175-VII): > 32 nM
IC50 (NCI-H1417): 21 nM
IC50 (RT-112): 0.614 nM
IC50 (HT-3): 15 nM
